Assay results reported in the supplement of paper PMC7600603.

How the values were obtained:
DLD1 NRF2-GOF [1] = test: TC50 cytotoxicity; higher = less toxic; settings: 72 h; CellTox Green cytotoxicity
Outline: (§1)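 TC50 and drug sensitivity score, a normalised area under the curve, were derived by logistic dose-response fits of cytotoxicity. The cells were an isogenic DLD1 colorectal cancer pair, NRF2 wild-type or CRISPR-edited, kept in DMEM with 10% FBS. Compounds were tested in 384-well plates at 5 concentrations across a 10,000-fold range for 72 h. Readings with CellTox Green on a Pherastar FS reader were normalised to vehicle wells and 100-μM positive-control wells.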

DLD1 NRF2-WT [2] = test: TC50 cytotoxicity; higher = less toxic; settings: 72 h; CellTox Green cytotoxicity
Outline: as §1

DLD1 NRF2-GOF [3] = test: drug sensitivity score (DSS) cytotoxicity (DSS score); higher = more toxic; extreme values may be limits of the assay; settings: 72 h; CellTox Green cytotoxicity
Outline: as §1

DLD1 NRF2-WT [4] = test: as above; settings: 72 h; CellTox Green cytotoxicity
Outline: as §1

DLD1 NRF2-GOF [5] = test: drug sensitivity score (DSS) viability (DSS score); higher = more sensitive; extreme values may be limits of the assay; settings: 72 h; CellTiter-Glo viability
Outline: (§2)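 Library compounds were tested in 384-well plates at 5 concentrations covering a 10,000-fold span against isogenic DLD1 colorectal cancer cells, NRF2 wild-type or CRISPR gain-of-function, grown in DMEM with 10% FBS. Viability was measured at 72 h with CellTiter-Glo on a Pherastar FS reader, relative to vehicle wells and 100-μM positive-control wells. EC50 and drug sensitivity score (normalised area under the curve) were derived from logistic dose-response curves fitted with four parameters.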

DLD1 NRF2-GOF [6] = settings: 72 h; CellTiter-Glo viability
Outline: as §2

DLD1 NRF2-WT [7] = test: drug sensitivity score (DSS) viability (DSS score); higher = more sensitive; extreme values may be limits of the assay; settings: 72 h; CellTiter-Glo viability
Outline: as §2

DLD1 NRF2-WT [8] = settings: 72 h; CellTiter-Glo viability
Outline: as §2

SMILES | TC50 cytotoxicity (DLD1 NRF2-GOF [1]) [nM] | TC50 cytotoxicity (DLD1 NRF2-WT [2]) [nM] | drug sensitivity score (DLD1 NRF2-GOF [3]) | drug sensitivity score (DLD1 NRF2-WT [4]) | drug sensitivity score (DLD1 NRF2-GOF [5]) | EC50 viability (DLD1 NRF2-GOF [6]) [nM] | drug sensitivity score (DLD1 NRF2-WT [7]) | EC50 viability (DLD1 NRF2-WT [8]) [nM]
CC(C)Oc1ccc(C(=O)N[C@H](CNC(=O)CN(C)C)Cc2ccc(-c3cn4cccc([C@H](C)O)c4n3)cc2)cc1Cl | > 10000 | > 10000 | 0 | 0 | 10.7 | 182 | – | –
CN(C)CC#Cc1ccc(OCCCc2sc(N3CCc4cccc(C(=O)Nc5nc6ccccc6s5)c4C3)nc2C(=O)O)c(F)c1 | 994 | – | 3.3 | – | 0 | > 10000 | – | –
COc1cc2ncnc(Oc3cccc(NC(=O)Nc4cc(C(C)(C)C(F)(F)F)on4)c3)c2cc1OC | > 10000 | > 10000 | 0 | 0 | 0.6 | – | 1.4 | > 10000
Cc1nn(C)c(COc2ccc(N3CCN(S(=O)(=O)N(C)C)CC3)cc2)c1-c1cccc2c(CCCOc3cccc4ccccc34)c(C(=O)O)n(CCN3CCOCC3)c12 | > 50000 | > 50000 | 0 | 0 | 2.1 | – | 1.9 | > 50000
Nc1ncnc2c1c(COc1cccc(Cl)c1)nn2C1CCOCC1 | > 10000 | > 10000 | 0 | 0 | 0.6 | > 10000 | – | –
O=C1Cc2cc(C(=O)NC3C[C@H]4CC[C@@H](C3)N4S(=O)(=O)CC3CCN(CCCC(F)(F)F)CC3)c(Cl)cc2N1 (some centres undefined) | > 10000 | > 10000 | 0 | 0 | 4.1 | – | 0 | > 10000
O=c1[nH]c(C2CCCN2)nc2c1oc1ccc(Cl)cc12 (centres undefined) | > 10000 | > 10000 | 0 | 0 | 0.7 | – | 0.9 | > 10000
C[C@H](Nc1ncnc2[nH]cnc12)c1cc2ccc(F)cc2nc1-c1ccccn1 [AMG319] | > 1000 | > 1000 | 0 | 0 | 1.6 | > 1000 | – | –
N[C@@H]1CCCN(c2c(/C=C3\SC(=O)NC3=O)cccc2-c2ccccc2)C1 [AZD1208] | > 10000 | > 10000 | 0 | 0 | 7.2 | > 10000 | – | –
C[C@@H](Nc1cc(F)cc(F)c1)c1cc(C(=O)N(C)C)cc2c(=O)cc(N3CCOCC3)oc12 [AZD-8186] | > 1000 | > 1000 | 0 | 0 | 5.2 | – | 3.6 | 59.8
Oc1ncnc2[nH]ncc12 [Allopurinol] | > 10000 | > 10000 | 0 | 0 | 0 | > 10000 | – | –
CC1(C)C(C(=O)Nc2ccc(S(=O)(=O)c3ccc(NC(=O)C4C(C)(C)C4(C)C)cc3)cc2)C1(C)C [BRD7116] | – | – | – | – | 7.6 | 48.2 | 5.5 | –
Cc1c(N)nc([C@H](CC(N)=O)NC[C@H](N)C(N)=O)nc1C(=O)N[C@H](C(=O)N[C@H](C)[C@@H](O)[C@H](C)C(=O)N[C@H](C(=O)NCCc1nc(-c2nc(C(=O)NCCC[S+](C)C)cs2)cs1)[C@@H](C)O)[C@@H](O[C@@H]1O[C@@H](CO)[C@@H](O)[C@H](O)[C@@H]1O[C@H]1O[C@H](CO)[C@@H](O)[C@H](OC(N)=O)[C@@H]1O)c1c[nH]cn1 [Bleomycin] | > 10000 | > 10000 | 0 | 0 | 2.6 | – | 0.4 | > 10000
Cc1nc2cccc(N)c2c(=O)n1C1CCC(=O)NC1=O (centres undefined) [CC122] | > 10000 | > 10000 | 0 | 0 | 2.7 | – | 3.2 | > 10000
Cc1noc2c1-c1ccccc1C(c1ccc(Cl)cc1)=N[C@H]2CC(N)=O [CPI-0610] | > 10000 | > 10000 | 0 | 0 | 3.6 | 362 | – | –
COc1cccc2c1C(=O)c1c(O)c3c(c(O)c1C2=O)C[C@@](O)(C(=O)CO)C[C@@H]3O[C@H]1C[C@H](N)[C@@H](O)[C@H](C)O1 [Epirubicin] | > 1000 | > 1000 | 0 | 0 | 8.6 | 153 | – | –
CO[C@H]1C[C@@H]2CC[C@@H](C)[C@@](O)(O2)C(=O)C(=O)N2CCCC[C@H]2C(=O)O[C@H]([C@H](C)C[C@@H]2CC[C@@H](OCCO)[C@H](OC)C2)CC(=O)[C@H](C)/C=C(\C)[C@@H](O)[C@@H](OC)C(=O)[C@H](C)C[C@H](C)/C=C/C=C/C=C/1C [Everolimus] | > 100 | > 100 | 0 | 0 | 2.5 | – | 4.7 | 11.7
CCc1nc(C(N)=O)c(Nc2ccc(N3CCC(N4CCN(C)CC4)CC3)c(OC)c2)nc1NC1CCOCC1 [Gilteritinib] | > 1000 | > 1000 | 0 | 0 | 1.4 | – | 2.9 | 251
C#Cc1cccc(Nc2ncnc3cc4c(cc23)OCCOCCOCCO4)c1 [Icotinib] | > 10000 | > 10000 | 0 | 0 | 0.7 | – | 2.5 | 1540
CC(C)Cn1cnc2c(N)nc3ccccc3c21 [Imiquimod] | > 2500 | > 2500 | 0 | 0 | 3.9 | 44.3 | – | –
Nc1cc(COc2c(Cl)cc(C[C@H](N)C(=O)O)cc2Cl)c2oc(-c3ccccc3)nc2c1 [JPH203] | > 5000 | > 5000 | 0 | 0 | 5.3 | – | 4.2 | > 5000
O=C(Nc1cnn2ccc(N3CCC[C@@H]3c3cc(F)ccc3F)nc12)N1CC[C@H](O)C1 [Larotrectinib] | > 1000 | > 1000 | 0 | 0 | 0.5 | > 1000 | – | –

SMILES | TC50 cytotoxicity (DLD1 NRF2-GOF [1]) [nM] | TC50 cytotoxicity (DLD1 NRF2-WT [2]) [nM] | drug sensitivity score (DLD1 NRF2-GOF [3]) | drug sensitivity score (DLD1 NRF2-WT [4]) | drug sensitivity score (DLD1 NRF2-GOF [5]) | EC50 viability (DLD1 NRF2-GOF [6]) [nM] | drug sensitivity score (DLD1 NRF2-WT [7]) | EC50 viability (DLD1 NRF2-WT [8]) [nM]
CC[C@H](C)C(=O)O[C@H]1C[C@@H](C)C=C2C=C[C@H](C)[C@H](CC[C@@H]3C[C@@H](O)CC(=O)O3)[C@H]21 [Lovastatin] | > 10000 | > 10000 | 0 | 0 | 5.2 | – | 0 | > 10000
CC1(C)CNc2cc(NC(=O)c3cccnc3NCc3ccncc3)ccc21 [Motesanib] | > 10000 | > 10000 | 0 | 0 | 3.1 | – | 4.5 | 565
FC(F)(F)c1ccc(/C=C/c2nc(COc3ccc(CCCCn4ccnn4)cc3)co2)cc1 [Mubritinib] | > 1000 | > 1000 | 0 | 0 | 2.4 | – | 7.4 | 33.4
CC1(C)NC(=O)N(c2ccc([N+](=O)[O-])c(C(F)(F)F)c2)C1=O [Nilutamide] | > 10000 | > 10000 | 0 | 0 | 3.6 | – | 0 | > 10000
O=C(c1cc(Cc2n[nH]c(=O)c3ccccc23)ccc1F)N1CCN(C(=O)C2CC2)CC1 [Olaparib] | > 10000 | > 10000 | 0 | 0 | 2.6 | 1400 | – | –
OC[C@H]1O[C@@H](n2cnc3c2N=CNC[C@H]3O)C[C@@H]1O [Pentostatin] | – | – | – | – | 1.6 | – | 2.5 | 1860
O=C(c1ccc(OCCN2CCCCC2)cc1)c1c(-c2ccc(O)cc2)sc2cc(O)ccc12 [Raloxifene] | – | – | – | – | 3.2 | 2100 | – | –
C/C=C1\NC(=O)[C@H]2CSSCC/C=C/[C@H](CC(=O)N[C@H](C(C)C)C(=O)N2)OC(=O)[C@H](C(C)C)NC1=O [Romidepsin] | 122 | 105 | 2.9 | 9.6 | 23.4 | 6 | – | –
CNCc1ccc(-c2[nH]c3cc(F)cc4c3c2CCNC4=O)cc1 [Rucaparib] | > 10000 | > 10000 | 0 | 0 | 2.7 | – | 0.8 | –
Cc1cc(F)c(C(=O)Nc2cccc(-c3nncn3C(C)C)n2)cc1-n1cnc(C2CC2)c1 [Selonsertib] | > 1000 | > 1000 | 0 | 0 | 3.7 | – | 4.9 | 13.3
COCCNCc1ccc(-c2cc3nccc(Oc4ccc(NC(=O)C5(C(=O)Nc6ccc(F)cc6)CC5)cc4F)c3s2)nc1 [Sitravatinib] | > 2500 | > 2500 | 0 | 0 | 5.5 | – | 4.6 | 138
CC(C)(O)CC(=O)NCCn1ccc2ncnc(Nc3ccc(Oc4cccc(C(F)(F)F)c4)c(Cl)c3)c21 [TAK-285] | > 2500 | > 2500 | 0 | 0 | 3.7 | – | 5.4 | 59.5
Clc1ccccc1C(c1ccccc1)(c1ccccc1)n1cccn1 [TRAM-34] | – | – | – | – | 6.4 | – | 2.2 | > 1000
CNC(=O)c1cc(COc2nnc(Nc3ccc(Cl)cc3)c3ccoc23)ccn1 [Telatinib] | > 10000 | > 10000 | 0 | 0 | 2.6 | – | 6.9 | –
Cn1nnc2c(C(N)=O)ncn2c1=O [Temozolomide] | > 100000 | > 100000 | 0 | 0 | 4.1 | 8090 | – | –
O=C1CCC(N2C(=O)c3ccccc3C2=O)C(=O)N1 (centres undefined) [Thalidomide] | > 10000 | > 10000 | 0 | 0 | 0.7 | > 10000 | – | –
Cn1cncc1[C@@](N)(c1ccc(Cl)cc1)c1ccc2c(c1)c(-c1cccc(Cl)c1)cc(=O)n2C [Tipifarnib] | > 10000 | > 10000 | 0 | 0 | 6.2 | – | 5.4 | 109
CS(=O)(=O)c1ccc(-c2cnc(N)c(C(=O)Nc3ccccc3)n2)cc1 [VE-821] | > 10000 | > 10000 | 0 | 0 | 0.9 | – | 0.2 | > 10000
COc1cc2/c(=N/c3ccc(Br)cc3F)nc[nH]c2cc1OCC1CCN(C)CC1 [Vandetanib] | > 1000 | > 1000 | 0 | 0 | 2.3 | – | 6.9 | –
CCc1c(C(=O)C(N)=O)c2c(OCC(=O)O)cccc2n1Cc1ccccc1 [Varespladib] | > 10000 | > 10000 | 0 | 0 | 0.8 | – | 3.9 | 1220
CCC1=C[C@@H]2CN(C1)Cc1c([nH]c3ccccc13)[C@@](C(=O)OC)(c1cc3c(cc1OC)N(C)[C@H]1[C@@](O)(C(=O)OC)[C@H](OC(C)=O)[C@]4(CC)C=CCN5CC[C@]31[C@@H]54)C2 [Vinorelbine] | > 10000 | – | 7.5 | 8.1 | 32.2 | 5.1 | – | –
O=C(CCCCCCC(=O)Nc1ccccc1)NO [Vorinostat] | > 10000 | 2240 | 0 | 2.2 | 3.5 | 3550 | – | –
